Results on seven compounds are retold here after US9700546B2, “Trivalent chromium compounds, compositions and methods of use” (INTERHEALTH NUTRACEUTICALS, INC., priority 2006, dated 2017).

Where two headings read alike, the source gives them in different places.

The subject of one data set is yeast. As to conditions: Cooper et al. 1984; cited from earlier work.
The test system of data set [1] is Obese Zucker rats. As to the kind of experiment: In vivo assessment in obese Zucker rats: blood lipid profile (total cholesterol, triglycerides, HDL). As to conditions: daily 400 μg Cr(III)/kg, 8 weeks, mean.
Data set [2] relates to Obese Zucker rats. The experiment in a line: In vivo assessment in obese Zucker rats: key biological parameters (fasting glucose, HbA1c, vitamin C, GSH, RBC lipid peroxidation). The note with it: obese Zucker rats, daily 400 μg Cr(III)/kg, 8 weeks, mean; for RBC Lipid Peroxidase: malondialdehyde by thiobarbituric acid; for Fasting Glucose: fasted overnight; for Vitamin C: plasma.

The conditions of data set [3]: cited from earlier work; for chromium absorbed (average): men and women.
Data set [4] deals with Obese Zucker rats. As to the kind of experiment: In vivo assessment in obese Zucker rats: other vascular inflammation markers (cAMP, TNFα, IL-6, OxyDNA). The note with it: obese Zucker rats, daily 400 μg Cr(III)/kg, 8 weeks, mean ± SE; for OxyDNA: oxidative DNA damage.
Data set [5] deals with Obese Zucker rats. The experiment in a line: In vivo assessment in obese Zucker rats: vascular inflammation markers (MCP-1, CRP, RBP-4, leptin, ICAM, adiponectin). The note with it: obese Zucker rats, daily 400 μg Cr(III)/kg, 8 weeks, mean; for Adiponectin / CRP / MCP-1 / ICAM: plasma, ELISA. For orientation: In an ELISA, binding on a coated surface is turned into a signal by an enzyme label.

Data set [6] deals with Obese Zucker rats. The experiment in a line: In vivo assessment in obese Zucker rats: clinical chemistry (AP, BUN, CRT, AST, ALT). The note with it: obese Zucker rats; mean ± SE.
Data set [7] relates to Obese Zucker rats. The note with it: rat, in vivo.
For data set [8], the system named is Obese Zucker rats. As to the kind of experiment: In vivo assessment in obese Zucker rats: body weight and food intake. As to conditions: obese Zucker rats, daily 400 μg Cr(III)/kg, mean; for Food Intake 5 wks: at 5 weeks; for Food Intake 7 wks: at 7 weeks.
For the next data set, the system named is insulin. As to conditions: in vitro; cited from earlier work.
The conditions of data set [9]: typical; cited from earlier work.

For Cr-nicotinic acid-glycine, the “glucose tolerance factor activity in yeast assay” value (from here on “glucose tolerance factor activity”) with yeast was “significant activity”.

In the case of “Chromium Histidinate [CrHis, reference compound]”, in the data set with Obese Zucker rats [1], the HDL is 66.90 mg/dL, the “Total Chol/HDL” value came out at 2.86 ratio, the “Total Cholesterol” value came to 189.62 mg/dL and the Triglyceride was 503.93 mg/dL. Besides, in the data set with Obese Zucker rats [2], the “RBC Lipid Peroxidase” value was 1.91 nmol/mL, the “Fasting Glucose” value is 592.01 mg/dL, the GSH was 4.68 µmol/g and the HbA1c is reported as 15.89%. Moreover, in [3], the “chromium absorbed (average)” value is 3.1 µg. Besides, the “absorbed better than chromium picolinate” value in data set [3] (relative to chromium picolinate) is on record as “at least 50%”. Moreover, in the data set on Obese Zucker rats [4], the IL-6 is on record as 91.98 ± 8.19 pg/mL, the TNFα worked out at 24.72 ± 5.24 pg/mL, the cAMP is on record as 28.07 ± 2.83 pmol/mL and the OxyDNA is on record as 57.72 ± 2.86 ng/mL. In addition, in the data set with Obese Zucker rats [5], the Leptin turned out to be 436.96 pg/mL, the RBP-4 turned out to be 51112.60 ng/mL, the Adiponectin is 11455.87 ng/mL and the CRP stood at 710.26 ng/mL. For the same compound, the MCP-1 with Obese Zucker rats [5] is given as 2974.79 pg/mL. For the same compound, in the data set on Obese Zucker rats [6], the “ALT (Alanine Aminotransferease)” value is recorded as 168.25 u/L, the “AP (Alkaline phosphatase)” value came to 35.25 u/L, the “AST (Aspartate Aminotransferase)” value is listed as 248.00 u/L and the “Anion Gap” value came out at 29.75. In addition, in the data set on Obese Zucker rats [6], the “BUN (Blood Urea Nitrogen)” value was found to be 19.50 mg/dL, the “BUN/CRT Ratio” value came to 48.75, the “CRT (Creatinine)” value is 0.40 mg/dL and the “Total Bilirubin” value is 0.10 mg/dL.

In the case of “Chromium Picolinate [CrP, reference compound]”, in the data set with Obese Zucker rats [7], the “ALT (Alanine Aminotransferease)” value turned out to be 179.78 u/L, the “AP (Alkaline phosphatase)” value was found to be 40.06 u/L, the “AST (Aspartate Aminotransferase)” value amounted to 362.44 u/L and the “Anion Gap” value is on record as 29.61. In the data set on Obese Zucker rats [7], the “BUN (Blood Urea Nitrogen)” value is recorded as 20.22 mg/dL, the “BUN/CRT Ratio” value amounted to 49.72, the “CRT (Creatinine)” value came out at 0.41 mg/dL and the “Total Bilirubin” value was 0.07 mg/dL. Besides, in the data set with Obese Zucker rats [8], the “Food Intake 5 wks” value came to 35.85 g/day and the “Food Intake 7 wks” value came to 40.79 g/day. In the data set with Obese Zucker rats [1], the HDL was determined as 66.01 mg/dL, the “Total Chol/HDL” value turned out to be 3.02 ratio, the “Total Cholesterol” value was determined as 191.80 mg/dL and the Triglyceride worked out at 625.35 mg/dL. Moreover, in the data set with Obese Zucker rats [2], the “RBC Lipid Peroxidase” value came out at 2.05 nmol/mL, the “Fasting Glucose” value is given as 527.28 mg/dL, the GSH came out at 4.84 µmol/g and the HbA1c is given as 15.54%. Besides, in the data set on Obese Zucker rats [2], the “Vitamin C” value is 0.15 mg %. Further, the “chromium absorbed (average)” value in data set [3] is 1.8 µg. Besides, in the data set with Obese Zucker rats [4], the IL-6 came to 94.13 ± 2.47 pg/mL, the TNFα worked out at 33.66 ± 5.27 pg/mL, the cAMP amounted to 29.17 ± 2.00 pmol/mL and the OxyDNA stood at 49.02 ± 2.31 ng/mL. In the data set on Obese Zucker rats [5], this compound showed a Leptin of 399.55 pg/mL, an RBP-4 of 49236.91 ng/mL, an Adiponectin of 11229.84 ng/mL and a CRP of 654.78 ng/mL. Further, in the data set on Obese Zucker rats [5], the ICAM was found to be 20428.47 pg/mL and the MCP-1 was determined as 4549.99 pg/mL.

For `NC(=O)CCC(N)C(=O)[O-].NC(=O)CCC(N)C(=O)[O-].O.O.[Cr+3]` (stereo not shown) [Cr(glutamine)2(H2O)2^+], the “glucose tolerance factor activity” value in the data set on yeast was “significant activity”.

With `NC(C[S-])C(=O)[O-].NC(C[S-])C(=O)[O-].[Cr+3]` (stereo not shown) [Cr(cysteine)2^−], the “glucose tolerance factor activity” value in the data set on yeast was “not active”.

Take `O=C(O)c1cccnc1` [Niacin, reference compound]: in the data set with Obese Zucker rats [8], the “Food Intake 5 wks” value came out at 37.92 g/day and the “Food Intake 7 wks” value is recorded as 39.67 g/day. In the data set with Obese Zucker rats [1], the HDL was found to be 70.33 mg/dL, the “Total Cholesterol” value came to 192.17 mg/dL and the Triglyceride is 486.67 mg/dL. Moreover, in the data set with Obese Zucker rats [2], the “RBC Lipid Peroxidase” value is 1.82 nmol/mL, the “Fasting Glucose” value worked out at 543.00 mg/dL, the GSH worked out at 5.32 µmol/g and the HbA1c turned out to be 15.60%. Also, the “Vitamin C” value in the data set with Obese Zucker rats [2] turned out to be 0.15 mg %. Besides, in the data set on Obese Zucker rats [4], the IL-6 stood at 93.76 ± 1.60 pg/mL, the cAMP is on record as 34.27 ± 1.47 pmol/mL and the OxyDNA is on record as 47.31 ± 2.78 ng/mL. In the data set with Obese Zucker rats [5], this compound registered a Leptin of 363.96 pg/mL, an RBP-4 of 53945.00 ng/mL, an Adiponectin of 8872.00 ng/mL and a CRP of 548.27 ng/mL. For the same compound, in the data set with Obese Zucker rats [5], the ICAM was 16855.83 pg/mL and the MCP-1 is reported as 1365.66 pg/mL. Moreover, in the data set with Obese Zucker rats [6], the “ALT (Alanine Aminotransferease)” value was found to be 126.17 u/L, the “BUN (Blood Urea Nitrogen)” value is 19.33 mg/dL and the “CRT (Creatinine)” value is on record as 0.40 mg/dL. Besides, the “potentiation of the action of insulin” value in the data set with insulin was “virtually no effect”.

Regarding `[Cl][Cr]([Cl])[Cl]` [chromium chloride], in [9], the “absorbed by the body” value is listed as “less than one”. Further, in data set [3], the “chromium absorbed (average)” value is 0.4 µg.
